Values of other authors as cited in publication PMC11705955, “Lack of activity of HIV-1 integrase strand-transfer inhibitors on recombinase activating gene (RAG) activity at clinically relevant concentrations” (Microbiology Spectrum, 2024).

Assays:
murine RAG1/RAG2 = system: murine RAG1/RAG2; parameters: method as in PMID 11756686; details: read-out: IC50 on RAG1/RAG2 in vitro; cited from earlier work
immunological competence = system: immunological competence; parameters: method as in PMID 22790968; details: TCR Vβ usage by flow cytometry and T cell-dependent antibody response; cited from earlier work
T or B cells = details: cited from earlier work

Q: With `O=C(/C=C(\O)c1nnn[nH]1)c1c[nH]c2ccc(Cl)cc12` [p8, 5-CITEP] as the molecule, how does the IC50 (murine RAG1/RAG2) read?
A: 200 µM

Q: With `C[C@@H]1CCO[C@H]2Cn3cc(C(=O)NCc4ccc(F)cc4F)c(=O)c(O)c3C(=O)N12` [DTG, dolutegravir] as the molecule, how does the “Impact on immunological competence in juvenile rats” value (immunological competence) read?
A: no impact on immunological competence

Q: With `COc1cc2c(cc1Cc1cccc(Cl)c1F)c(=O)c(C(=O)O)cn2[C@H](CO)C(C)C` [EVG, elvitegravir] as the molecule, how does the “Effect on T or B cells in treated mice” value (T or B cells) read?
A: did not show a large decrease in T or B cells
